Patent US20050048093A1, “Methods and reagents for the control of infestations of parasites” (priority 2001, published 2005)
Where “and” joins values, the source holds several entries; their conditions need not be identical. Equal values may be shown once.

Tests used:
Format in all cases: in vivo
Varroa destructor [1] = test: Inhibition of the reproduction of V. destructor in natural cells; settings: Example 2, 10 days in hive
Description: Example 2 was conducted in the same way as Example 1, except for the fact that the V. destructor mite was cultivated on bee larvae in natural cells from a beehive. In this example, too, the effect of 8-heptadecene on the reduction in the mean number of offspring produced by a female V. destructor in cells of natural honeycomb, kept in the hive, was verified.
For verification of the activity of cis-8-C17H34, two groups of natural cells were prepared. In the cells of the first group, referred to as the treated group, 1 μl of acetone containing 100 ng of cis-8-heptadecene was deposited. In the cells of the second group, the control group, 1 μl of the solvent alone, ie acetone, was deposited. The natural cells were cells just capped with honeycomb taken from infested hives and the product was deposited via injection of the solution using a microsyringe through the cell cap. Following treatment, the honeycomb was returned to the hive from which it was taken. After ten days, the honeycombs used for the experiment were brought to the laboratory; both the treated and control cells were opened and inspected. In the infested cells, the mean number of offspring produced by each varroa was counted. The experiment was replicated six times: in total, approximately 140 infested cells were examined for each group.

Varroa destructor [2] = test: Inhibition of the reproduction of V. destructor in artificial (gelatine) cells; settings: for Inhibitory activity in respect of varroa reproduction / Number of offspring per varroa female in the artificial cells treated (Mean) / Number of offspring per varroa female in the artificial cells treated: Example 5; for Inhibitory activity in respect of varroa reproduction: artificial cells, result in words; for Number of offspring per varroa female in the artificial cells treated (Mean) / Number of offspring per varroa female in the artificial cells treated: same procedure as Example 1; for Number of offspring per varroa female in the artificial cells treated (Mean): mean of three replications; for Number of offspring per varroa female in the artificial cells treated: single replications 1-3
Description: In Example 1, a chemical composition is made up of a solution of heptadecene in hexane, with a double bond in position 8 and cis configuration ([…]). The cis-8-heptadecene in a solution of hexane causes a reduction in reproduction, ie a reduction in the number of offspring produced by the Varroa destructor mite, raised in a laboratory environment, on bee larvae in gelatine cells. For verification of the activity of cis-8-C17H34, two groups of gelatine cells were prepared, with a diameter of 6.5 mm. In each of the two cells of the first group, 10 […] 100 ng of cis-8-heptadecene was deposited. This group was defined as the treated group. In the cells of the second group, 10 […] active compound was deposited. This group was defined as the control group. The substances were deposited into each cell using a micropipette. The solvent was left to evaporate and then one varroa and one bee larva from natural, just-capped cells were introduced into each cell in each of the groups. The varroa was thus cultivated on the bee larva, during the metamorphosis of the larva, as happens in nature. Cultivation took place at 35° C. and 75% relative humidity. After ten days Oust before the bee reached its adult state), the cells were opened and inspected by microscope and the offspring produced by each varroa female were counted. The experiment described above was conducted four times; in total, approximately 80 cells were used per group. Following the same procedure used in Example 1, a chemical composition made up of a solution of a heptadecene isomer as in Example 1, in this case the isomer with a double bond in position 6 (cis-6-C17H34), and a second composition containing a solution of cis-8-heptadecene (cis-8-C17H34) were applied.

Varroa destructor [3] = test: Inhibition of the reproduction of V. destructor via dispensing of cis-8-heptadecene in bee colonies; settings: for Number of offspring of V. destructor inside the capped cells of Group B (10 μg) / Number of offspring of V. destructor inside the capped cells of Group A (100 μg): changed weekly
Description: In Example 3, ten nuclei were prepared, ie bee colonies with a reduced number of individuals, in the order of several thousand. Each nucleus was placed in a hive with dimensions smaller than those of a standard hive. These nuclei were divided into three groups—A and B, each with three nuclei, and C, with four nuclei.
Into each hive, a dispensing mechanism comprising a nylon grid, with a 100 μm mesh, square and with a side measurement of 10 cm, supported by a sheet of aluminium, was introduced. Solutions of cis-8-heptadecene in various concentrations in 100 μl of hexane were placed on each of these grids. The solvent was left to evaporate before each test. Group A was treated with 100 μg of cis-8-C17H34 in 100 μl of hexane, Group B with 10 μg of cis-8-C17H34 in […], and Group C with 100 μl of hexane without the addition of cis-8-C17H34 (control grou). The dispensing mchanism was changed in each hive each week; and treatment lasted for three weeks. At the end of the test, the number of V. destructor individuals present on the adult bees and in the brood cells was determined. The brood cells were removed from the hives, opened and inspected. Finally, the V. destructor individuals killed by the treatment were counted. The numbers of offspring of the V. destructor individuals present in the brood cells were calculated, separately for each developmental stage of the bees, and specifically pink-eyed pupae (pp), black-eyed pupae (pd) and pigmented pupae and adult bees (ppd).

Compound	Number of offspring per varroa female in the natural cells treated with cis-8-heptadecene (Varroa destructor [1]; 100 ng in 1 μl acetone per natural capped cell, single replications 1-6)	Number of offspring per varroa female in the natural cells treated with cis-8-heptadecene (Mean) (Varroa destructor [1]; 100 ng per natural capped cell, mean of six replications)	Number of offspring per varroa female in the artificial cells treated with cis-8-heptadecene (Mean) (Varroa destructor [2]; Example 1, 100 ng per gelatine cell, 10 days, mean of four replications)	Inhibitory activity in respect of varroa reproduction (Varroa destructor [2])	Number of offspring per varroa female in the artificial cells treated (Mean) (Varroa destructor [2])	Number of offspring per varroa female in the artificial cells treated (Varroa destructor [2]; listed as cis-8-C17H34)	Number of offspring of V. destructor inside the capped cells of Group B (10 μg) (Varroa destructor [3]; 10 μg per dispenser, three weeks, PD: black-eyed pupae)	Number of offspring of V. destructor inside the capped cells of Group B (10 μg) (Varroa destructor [3]; 10 μg per dispenser, three weeks, PDD [sic]: pigmented pupae et adults)	Number of offspring of V. destructor inside the capped cells of Group B (10 μg) (Varroa destructor [3]; 10 μg per dispenser, three weeks, PP: pink-eyed pupae)	Percentage distribution of V. destructor in Group B (10 μg): Varroa in the reproductive phase (Varroa destructor [3]; 10 μg per dispenser, three weeks, adult female varroa in brood cells) [Percentage]	Percentage distribution of V. destructor in Group B (10 μg): Varroa in the phoretic phase (Varroa destructor [3]; 10 μg per dispenser, three weeks, adult female varroa on adult bees) [Percentage]	Number of offspring of V. destructor inside the capped cells of Group A (100 μg) (Varroa destructor [3]; 100 μg per dispenser, three weeks, PD: black-eyed pupae)	Number of offspring of V. destructor inside the capped cells of Group A (100 μg) (Varroa destructor [3]; 100 μg per dispenser, three weeks, PDD [sic]: pigmented pupae et adults)	Number of offspring of V. destructor inside the capped cells of Group A (100 μg) (Varroa destructor [3]; 100 μg per dispenser, three weeks, PP: pink-eyed pupae)	Percentage distribution of V. destructor in Group A (100 μg): Varroa in the reproductive phase (Varroa destructor [3]; 100 μg per dispenser, three weeks, adult female varroa in brood cells) [Percentage]	Percentage distribution of V. destructor in Group A (100 μg): Varroa in the phoretic phase (Varroa destructor [3]; 100 μg per dispenser, three weeks, adult female varroa on adult bees) [Percentage]	Reproduction of V. destructor in the cells of the hives (Varroa destructor [3]; Groups A (100 μg) and B (10 μg), as from the black-eyed pupa stage (pd), result in words)	Number of offspring per varroa female in the artificial cells treated (Varroa destructor [2]; listed as cis-6-C17H34)
CCCCCCC/C=C\CCCCCCCC [cis-8-heptadecene]	3.2 and 2.5 and 3.6 and 3.1 and 3.7	3.2	1.7	demonstrated inhibitory activity	1.9	2.0 and 1.5	2.65	3.20	2	60	40	2.63	3.29	2	50	50	reduction, albeit modest	
CCCCC/C=C\CCCCCCCCCC [cis-6-heptadecene]				demonstrated inhibitory activity	2.1													2.4 and 2.3 and 1.7
